Data from PMC6595003, “Insights into real-time chemical processes in a calcium sensor protein-directed dynamic library” (Nature Communications, 2019).
Entries after “also recorded” stand apart in the source; their conditions may differ.

Assays:
NCS-1/Ric8a interaction = biological target: T1, NCS-1/Ric8a interaction (Homo sapiens, UniProt P62166); assay: Co-IP binding assay of human NCS-1 and V5-tagged Ric8a in transfected HEK cells; type: cell-based; settings: compound 20 μM; for modulation of the NCS-1/Ric8a binding: compared with DMSO (basal binding 100%); for Densitometry of V5-Ric8a co-immunoprecipitated with NCS-1, exp4: DMSO in the same experiment 3222255; for Densitometry of V5-Ric8a co-immunoprecipitated with NCS-1, exp3: DMSO in the same experiment 4613104; for Densitometry of V5-Ric8a co-immunoprecipitated with NCS-1, exp2: DMSO in the same experiment 9508518; for Densitometry of V5-Ric8a co-immunoprecipitated with NCS-1, exp1: DMSO in the same experiment 19247016
T1 construct: expressed in transfected cells; host or cells: HEK293 cells (Dharmacon)
Excerpt: Mean ± SD from three independent experiments. The curves represent the least squares fitting of the experimental data to a 1:1 stoichiometry. To properly compare the different curves, intensities were normalized and represented. […] Input represents 1/10 cell lysates before IP. Quantifications of each lane from four experiments are shown below the blots. Bars represent percentage of NCS-1/ Ric8a binding (mean ± SD) normalized to DMSO. […] CNS + (green) for Pe > 4.47 × 10^−6 cm s^−1, CNS- (red) for compounds with Pe < 4.47 × 10^–6 cm s^−1. […] Mean ± SD from three independent experiments. […] Then, the percentage of picnotic bodies over the total nuclei was analyzed. Mean ± SD from three independent experiments. Paired two-tailed Student’s test ***P˂0.001; **P < 0.01; *P < 0.05. Source data are provided as a Source Data file. IP immunoprecipitation, WB western blot
Binding assays with NCS-1 and Ric8a in co-transfected HEK cells were carried out to study the modulation effect of compounds 3a, 3b and 3d in the protein-protein interaction (Fig. 6b).
hNCS-1 and V5-tagged hRic8a were co-transfected into HEK293 cells (Dharmacon) using Lipofectamine 2000 (Invitrogen)[13]. After 24 h, after transfection, DMSO alone or the compounds dissolved in DMSO (20 μM) were added to the culture cells. Then, 24 h after transfection, cells were lysed with Lysis buffer (150 mM NaCl, 1.0% Nonidet P-40, 50 mM Tris, pH 8.0) in the presence of the compounds (20 μM), whose concentration was maintained throughout the immunoprecipitation assay. Precleared lysates were incubated overnight (12 h) at 4 °C with mouse anti-NCS-1 (1:500; Cell Signaling). Samples were subsequently incubated overnight with Protein-G-Sepharose (Sigma-Aldrich), washed and eluted from the Sepharose. Samples were analyzed by Western blot following standard procedures. […] Original representative western blots are found in Source Data file.

dNCS-1 = biological target: T2, dNCS-1 (Drosophila melanogaster, UniProt Q9VWX8); assay: Tryptophan emission fluorescence of dNCS-1 at increasing ligand concentrations (apparent Kd); type: binding; settings: for Kd: Ca2+ loaded dNCS-1 0.8 µM, pH 7.9, 5% DMSO, 5 °C, fit to 1:1 stoichiometry, three independent experiments
T2 construct: made in house; host or cells: E. coli
T2 sequence (Q9VWX8 1-187): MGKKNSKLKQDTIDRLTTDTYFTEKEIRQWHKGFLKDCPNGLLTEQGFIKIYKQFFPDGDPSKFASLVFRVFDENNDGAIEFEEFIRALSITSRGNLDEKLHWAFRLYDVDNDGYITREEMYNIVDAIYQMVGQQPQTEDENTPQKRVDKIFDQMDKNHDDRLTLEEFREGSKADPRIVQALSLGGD
Procedure: Fluorescence-based experiments with 3a–3e were carried out to estimate their affinity to dNCS-1.
Mean ± SD from three independent experiments. The curves represent the least squares fitting of the experimental data to a 1:1 stoichiometry. To properly compare the different curves, intensities were normalized and represented. […] Input represents 1/10 cell lysates before IP. Quantifications of each lane from four experiments are shown below the blots. Bars represent percentage of NCS-1/ Ric8a binding (mean ± SD) normalized to DMSO. […] Mean ± SD from three independent experiments. […] Then, the percentage of picnotic bodies over the total nuclei was analyzed. Mean ± SD from three independent experiments. Paired two-tailed Student’s test ***P˂0.001; **P < 0.01; *P < 0.05. Source data are provided as a Source Data file. IP immunoprecipitation, WB western blot […]
the length of the pass light (L) is 1cm (see Supplementary Table 3 and Supplementary […]
Fluorescence emission experiments. Tryptophan emission fluorescence of dNCS-1 […]
affinity and calculate the apparent dissociation constant, Kd. Fluorescence measurements were performed by Jobin Yvon Floromax4 spectrofluorimeter equipped […]
5% DMSO at 5 °C. The excitation wavelength was fixed at 295 nm, and the emission spectra range were collected over 300-400 nm.
Then, three independent experiments were performed
Fluorescence intensities were normalized and represented as (I0 − I)/I 0. I stands for the observed fluorescence emission at 345 nm (fluorescence maximum), and I0 is the observed fluorescence emission of the protein itself without any small molecule. The apparent dissociation constant was obtained using a least squares algorithm to fit the experimental data to a 1:1 stoichiometry model.6 The fitting was performed with KaleidaGraph Data Analysis Program. […]
Protein expression and purification. Drosophila and human NCS-1 were over-expressed in E. coli and subsequently purified to homogeneity as previously described.9

T1 sequence (P62166 2-190 limits assumed): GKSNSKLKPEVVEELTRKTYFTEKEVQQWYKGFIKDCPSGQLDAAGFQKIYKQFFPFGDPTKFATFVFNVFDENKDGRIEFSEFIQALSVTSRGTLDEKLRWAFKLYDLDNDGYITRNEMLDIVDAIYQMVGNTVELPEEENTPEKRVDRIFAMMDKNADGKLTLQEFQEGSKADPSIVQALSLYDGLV

SMILES | modulation of the NCS-1/Ric8a binding (NCS-1/Ric8a interaction) | Densitometry of V5-Ric8a co-immunoprecipitated with NCS-1, exp4 (NCS-1/Ric8a interaction) | Densitometry of V5-Ric8a co-immunoprecipitated with NCS-1, exp3 (NCS-1/Ric8a interaction) | Densitometry of V5-Ric8a co-immunoprecipitated with NCS-1, exp2 (NCS-1/Ric8a interaction) | Densitometry of V5-Ric8a co-immunoprecipitated with NCS-1, exp1 (NCS-1/Ric8a interaction) | Kd (dNCS-1) [µM] | Normalized Fluorescence I0-I/I0 (dNCS-1; ligand 3.2 μM) | Normalized Fluorescence I0-I/I0 (dNCS-1; ligand 6.4 μM) | Normalized Fluorescence I0-I/I0 (dNCS-1; ligand 8 μM) | Normalized Fluorescence I0-I/I0 (dNCS-1; ligand 16 μM) | Normalized Fluorescence I0-I/I0 (dNCS-1; ligand 24 μM) | Normalized Fluorescence I0-I/I0 (dNCS-1; ligand 32 μM) | Normalized Fluorescence I0-I/I0 (dNCS-1; ligand 48 μM) | Normalized Fluorescence I0-I/I0 (dNCS-1; ligand 64 μM) | Normalized Fluorescence I0-I/I0 (dNCS-1; ligand 80 μM) | Normalized Fluorescence I0-I/I0 (dNCS-1; ligand 96 μM)
O=C(Cc1c[nH]c2ccccc12)NN=Cc1ccc([N+](=O)[O-])c(O)c1 (mixture of isomers) [3b] | strong binding; also recorded: promote the stabilization of the NCS-1/Ric8a interaction | 9362004 | 7268347 | 15828581 | 32007200 | 43 ± 6 | 0.064 | 0.094 | 0.164 | 0.334 | 0.447 | 0.600 | 0.701 | 0.814 | 0.849 | 0.900
O=C(NN=Cc1ccc([N+](=O)[O-])c(O)c1)C(O)c1ccccc1 (mixture of isomers) [3d] | strong binding; also recorded: promote the stabilization of the NCS-1/Ric8a interaction | 6181447 | 9737953 | 13428024 | 25716501 | 61 ± 9 | 0.123 | 0.086 | 0.187 | 0.280 | 0.401 | 0.424 | 0.549 | 0.700 | 0.766 | 0.802
O=C(N/N=C/c1ccc([N+](=O)[O-])c(O)c1)c1ccco1 [3a] | reduced binding; also recorded: inhibitor similar to CPZ | 1982719 | 1649426 | 4838154 | 13971167 | 32 ± 2 | 0.131 | 0.215 | 0.262 | 0.405 | 0.544 | 0.668 | 0.810 | 0.878 | 0.924 | 0.955
